Experimental data taken from the SangsterLogP compilation.

Test: method code SF-AS, from DOI: 10.1002/1520-6017(200012)89:12<1525::aid-jps3>3.0.co;2-t
Details: for logD: pH 7.4

Structure (SMILES) | logP | logD
CC(=O)N(O)CCCCCNC(=O)CCC(=O)N(O)CCCCCNC(=O)CCC(=O)N(O)CCCCCNC=O | -0.1 | 
CC(=O)NCCCCCN(O)C(=O)CCC(=O)NCCCCCN(O)C(=O)CCC(=O)NCCCCCN(O)C(C)=O | 0.1 | 
CCCCC(=O)NCCCCCN(O)C(=O)CCC(=O)NCCCCCN(O)C(=O)CCC(=O)NCCCCCN(O)C(C)=O | 0.88 | 
CCCCCC(=O)NCCCCCN(O)C(=O)CCC(=O)NCCCCCN(O)C(=O)CCC(=O)NCCCCCN(O)C(C)=O |  | 1.1
CCCC(=O)NCCCCCN(O)C(=O)CCC(=O)NCCCCCN(O)C(=O)CCC(=O)NCCCCCN(O)C(C)=O | 0.42 | 
CCCCCCCC(=O)NCCCCCN(O)C(=O)CCC(=O)NCCCCCN(O)C(=O)CCC(=O)NCCCCCN(O)C(C)=O |  | 1.09
CC(=O)N(O)CCCCCNC(=O)CCC(=O)N(O)CCCCCNC(=O)CCC(=O)N(O)CCCCCNC(=O)CCC(=O)O | -0.5 | 

Continued, values first:

logP | logD | Structure (SMILES)
0.86 |  | CC(=O)N(O)CCCCCNC(=O)CCC(=O)N(O)CCCCCNC(=O)CCC(=O)N(O)CCCCCNC(=O)c1ccccc1
0.9 |  | CC(=O)N(O)CCCCCNC(=O)CCC(=O)N(O)CCCCCNC(=O)CCC(=O)N(O)CCCCCNC(=O)Cc1ccccc1
0.26 |  | CCC(=O)NCCCCCN(O)C(=O)CCC(=O)NCCCCCN(O)C(=O)CCC(=O)NCCCCCN(O)C(C)=O
